Assay results: patent publication US20080064702A1, “Use of folates for the prevention and treatment of vascular diseases” (priority 2006, published 2008)
“Also recorded” adds a separate entry of the source. Where two headings read alike, the source gives them in different places.

Experiments:
saphenous veins [1] = system: saphenous veins
Method: (§1) Vessel Harvesting and Ex Vivo Studies. Samples of SV (n=38) and IMA (n=46) from a total of 61 patients, were harvested during CABG operation, as previously described (Channon K M, Trends Cardiovasc Med 2004; 14:323-327; Guzik T J et al., Circulation 2002; 105:1656-1662). Vessel segments were transferred to the laboratory within 30 minutes, in ice cold Krebs-Henseleit buffer. Segments of SV and IMA were incubated with 5-MTHF (0-100 μM) in Krebs-Henseleit buffer for 45 minutes prior to assays of endothelial function, superoxide/peroxynitrite production, radio-labelled arginine/citrulline conversion, western blotting or tissue 5-MTHF and biopterin levels.
(§2) Vasomotor Studies. Endothelium-dependent and endothelium-independent dilatation were assessed using isometric tension studies, as previously described (Guzik T J et al, Circ Res. 2000; 86:e85). Vessel rings were equilibrated and passively pre-tensioned to 3 g, an optimal resting tension that was determined in baseline studies of contractile response to KCl. Following precontraction with phenylephrine (3×10^−6M), vasomotor responses to the endothelium-mediated agonists acetylcholine (ACh, 10^−9M to 10^−5M) and bradykinin (BK, 10^−9 M to 10^−5M), were quantified in 4 equally sized segments from the same vessel. In the ex vivo experiments, vasomotor responses were repeated after incubation for 45 minutes with 0 (control), 1, 10 or 100 μM 5-MTHF, added to the organ bath chambers. Finally, relaxations to the NO donor sodium nitroprusside (SNP, 10^−10M to 10^−6M), were evaluated in the presence of the NOS inhibitor NG-nitro-L-arginine methyl ester (L-NAME; 100 μM).

[2] = 0.13 mg/kg i.v.; for plasma concentration: preliminary studies
Method: (§5) Patients (n=56) undergoing CABG participated in a double-blind placebo controlled study, where they received an intravenous infusion of either 5-MTHF (Merck Eprova, Switzerland) or placebo, administered before the CABG. […] Samples 5 of SV and IMA were harvested ˜45 minutes after the infusion of 5-MTHF (mean time of harvesting 45.7±2.9 minutes after infusion), and assayed for NO-mediated vasomotor function, vascular superoxide production, tissue 5-MTHF and biopterin levels, as described below.
(§6) Blood samples were collected prior to administration of 5-MTHF or placebo, and at the time of vessel harvesting. […] Plasma and tissue levels of 5-MTHF were determined by high performance liquid chromatography (HPLC), as previously described (Leeming R J et al, Metabolism. 1990; 39:902).

vascular endothelium = settings: vessels from 5-MTHF-treated patients
Method: (§3) In Vivo Studies. Patients (n=56) undergoing CABG participated in a double-blind placebo controlled study, where they received an intravenous infusion of either 5-MTHF (Merck Eprova, Switzerland) or placebo, administered before the CABG.
Oxidative Fluorescent Microtopography. In situ superoxide production was determined in vessel cryosections with the oxidative fluorescent dye dihydroethidium (DHE) (Bendall J K et al, Circ Res. 2005; 97:864). Paired cryosections ([…]) from the same vessel were incubated with DHE (2 μmol/L) in PBS, with or without L-NAME (100 μM). Fluorescence images (x40, Zeiss LSM 510 META laser 6 scanning confocal microscope) were obtained from each vessel quadrant, incorporating the luminal side of the vessel to quantify endothelial cell fluorescence. In each case, segments of vessel rings (with and without L-NAME) were analyzed in parallel with identical imaging parameters. DHE image analysis was carried out in a blinded fashion, and by two independent investigators, by using Image-Pro Plus software (Media Cybernetics).

[3] = SV, 45 min
Method: Plasma and tissue levels of 5-MTHF were determined by high performance liquid chromatography (HPLC), as previously described (Leeming R J et al, Metabolism. 1990; 39:902).

[4] = system: saphenous veins and internal mammary arteries; settings: IMA, 45 min ex vivo with 1 μM 5-MTHF, vs control
Method: as §1
Determination of Biopterin Levels. Biopterin levels in human vessels were determined by HPLC, as previously described (Alp N J et al, J Clin Invest. 2003; 112:725) and expressed as pmol/g of tissue. To examine the effect of 5-MTHF on peroxynitrite-induced oxidation of BH4, SIN-1 (2 μM) was used to oxidize BH4 (0.1 μM) in the presence or absence of 5-MTHF (1 μM) at 37° C. for 14 minutes (Milstien S and Katusic Z. Biochem Biophys Res Commun. 1999; 263:681).

[5] = Peroxynitrite scavenging assay, SIN-1 system with luminol; format: biochemical; settings: SIN-1 1 μM; for direct peroxynitrite scavenging effect: concentrations as low as 1 μM, 5-MTHF and uric acid at equal concentrations
Method: Superoxide and Peroxynitrite Scavenging Assays. The direct superoxide scavenging effect of 5-MTHF was evaluated with the use of xanthine/xanthine oxidase system. […] The scavenging effects of 5-MTHF, vitamin C or uric acid were calculated as the percent inhibition of chemiluminescence compared with control.

[6] = Superoxide scavenging assay, xanthine/xanthine oxidase system; format: biochemical
Method: Superoxide and Peroxynitrite Scavenging Assays. The direct superoxide scavenging effect of 5-MTHF was evaluated with the use of xanthine/xanthine oxidase system. Superoxide production was induced by adding xanthine oxidase ([…]/mL) in Krebs HEPES buffer (2 mL, pH=7.4) at 37° C., containing xanthine (0.133 mM) and lucigenin (5 μM), in the presence of 5-MTHF (0-100 μM) or equal concentrations of ascorbic acid as positive control. Peroxynitrite production was induced by adding 3-morpholinosydnonimine (SIN-1, 1 μM) in Krebs HEPES buffer (2 mL, pH=7.4) at 37° C. containing luminol (100 μM), in the presence of different concentrations of 5-MTHF (0-100 μM) or equal concentrations of uric acid as positive control as previously described (Kuzkaya N et al, J Biol Chem. 2003; 278:22546). The scavenging effects of 5-MTHF, vitamin C or uric acid were calculated as the percent inhibition of chemiluminescence compared with control.

[7] = system: saphenous veins and internal mammary arteries; settings: ca. 45 min after 0.13 mg/kg i.v., vs placebo
Method: as §3
(§4) Superoxide/Peroxynitrite Measurements. Vascular superoxide production was measured from fresh human vessels using lucigenin (5 μM)-enhanced chemiluminescence as previously described (Skatchkov M P et al, Biochem Biophys Res Commun. 1999; 254:319). Samples of SV and IMA from the same patient were opened longitudinally to expose the endothelial surface and then equilibrated for 20 minutes in oxygenated (95% O2/5% CO2) Krebs-HEPES buffer (2 mL, pH=7.4) at 37° C. 14. NOS-derived superoxide was measured by adding L-NAME (100 μM) in the equilibrating buffer, and by calculating the difference in superoxide signal compared with basal conditions. Vascular peroxynitrite was determined using luminol (100 μM) instead of lucigenin, and by subtracting the remaining signal after adding the specific peroxynitrite scavenger uric acid (1 mM), as previously described (Laursen J B et al, Circulation. 2001; 103:1282).

[8] = system: saphenous veins and internal mammary arteries; settings: SV and IMA, higher 5-MTHF concentrations (10, 100 μM) compared with 1 μM
Method: as §1
as §4, with “Samples of SV and IMA from the same patient were opened longitudinally to expose the endothelial surface and then equilibrated for 20 minutes in oxygenated (95% O2/5% CO2) Krebs-HEPES buffer (2 mL, pH=7.4) at 37° C. 14.” left out

eNOS = eNOS (Homo sapiens, UniProt P29474); settings: IMA, 5-MTHF 1 μM for 45 minutes; paired control 0.14±0.02%/g
Sequence of eNOS (P29474 2-1203 limits assumed): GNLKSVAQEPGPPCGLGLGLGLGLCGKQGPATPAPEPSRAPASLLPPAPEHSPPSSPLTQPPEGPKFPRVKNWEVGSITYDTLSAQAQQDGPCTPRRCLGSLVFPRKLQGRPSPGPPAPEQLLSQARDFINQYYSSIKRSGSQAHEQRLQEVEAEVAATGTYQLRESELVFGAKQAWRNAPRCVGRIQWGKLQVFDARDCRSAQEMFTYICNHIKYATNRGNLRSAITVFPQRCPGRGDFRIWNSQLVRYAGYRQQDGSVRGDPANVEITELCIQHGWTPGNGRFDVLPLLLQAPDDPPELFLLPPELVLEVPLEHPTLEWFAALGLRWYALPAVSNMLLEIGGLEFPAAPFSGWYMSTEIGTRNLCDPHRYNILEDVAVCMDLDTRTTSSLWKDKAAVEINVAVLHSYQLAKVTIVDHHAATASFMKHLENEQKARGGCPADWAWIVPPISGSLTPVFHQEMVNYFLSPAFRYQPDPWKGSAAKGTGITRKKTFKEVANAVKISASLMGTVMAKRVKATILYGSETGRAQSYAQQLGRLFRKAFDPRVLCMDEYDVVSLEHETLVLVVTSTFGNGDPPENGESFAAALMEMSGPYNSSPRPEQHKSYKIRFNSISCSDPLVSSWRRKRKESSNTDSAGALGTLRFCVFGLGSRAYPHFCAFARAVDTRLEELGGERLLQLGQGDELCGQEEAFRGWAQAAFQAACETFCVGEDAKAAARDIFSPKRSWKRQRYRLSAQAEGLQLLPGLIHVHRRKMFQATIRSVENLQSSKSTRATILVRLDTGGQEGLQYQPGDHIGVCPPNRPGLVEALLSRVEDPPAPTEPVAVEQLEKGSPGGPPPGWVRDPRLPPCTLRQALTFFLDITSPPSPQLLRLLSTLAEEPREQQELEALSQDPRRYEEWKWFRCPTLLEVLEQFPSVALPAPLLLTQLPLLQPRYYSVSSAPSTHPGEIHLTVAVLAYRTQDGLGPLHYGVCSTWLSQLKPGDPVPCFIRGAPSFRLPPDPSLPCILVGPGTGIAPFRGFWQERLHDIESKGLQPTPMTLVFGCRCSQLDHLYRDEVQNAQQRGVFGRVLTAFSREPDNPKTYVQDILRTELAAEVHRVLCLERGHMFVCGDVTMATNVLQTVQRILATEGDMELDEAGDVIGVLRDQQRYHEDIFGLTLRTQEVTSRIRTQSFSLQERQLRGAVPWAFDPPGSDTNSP
Method: as §1

[9] = 45 minutes after infusion of 5-MTHF; from 11.0±0.62 before
Excerpt: as §3

[10] = ~45 min after 0.13 mg/kg i.v.
Method: as §5, §6

saphenous veins [11] = system: saphenous veins; remark: listed apart in the source
Method: as §3, §2

[12] = 5-MTHF 10 or 100 μM compared with 1 μM
[13] = SV segments ~45 min after 0.13 mg/kg i.v., vs placebo

## CN1c2c(nc(N)[nH]c2=O)NCC1CNc1ccc(C(=O)N[C@@H](CCC(=O)O)C(=O)O)cc1 (stereo partly shown) [5-MTHF, 5-methyltetrahydrofolate]
Saphenous veins [1]; [12]
  maximum relaxations to Ach: no further increase
  maximum relaxations to BK: no further increase
Saphenous veins [1]; 5-MTHF-incubated vs control vessel segments, data not shown
  vasomotor responses to the endothelium-independent agonist SNP: no differences
Saphenous veins [1]; baseline 7.9±0.8 g, after incubation
  absolute contractions in response to phenylephrine after incubation: remained unchanged
[2]; 45 minutes after infusion
  plasma concentration: 1000 to 2000 nM
[2]; at the time of vessel harvesting (~45 min), 5-MTHF-treated group
  plasma 5-MTHF levels: 2.28 ± 0.21 µM
[2]; immediately after administration
  plasma concentration: 2000 to 3000 nM
Vascular endothelium
  DHE fluorescence in other regions of the vessel wall: unaffected
[3]; incubation with 5-MTHF 1 μM, control 0.40±0.06
  vascular 5-MTHF levels: 3.40±0.71 nmol/g tissue
[3]; incubation with 5-MTHF 10 μM
  vascular 5-MTHF levels: 21.3±8.10 nmol/g tissue
[3]; incubation with 5-MTHF 100 μM
  vascular 5-MTHF levels: 57.2±18.9 nmol/g tissue
[4]
  BH4/tBio ratio: increased
  vascular BH4: increased
[5]
  direct peroxynitrite scavenging effect: strong direct peroxynitrite scavenging effect; also recorded: potent scavenging effect
[5]; at 1 μM
  reduction of measurable peroxynitrite: 75%
[6]; low concentrations (1-10 μM)
  effect on measurable superoxide: no detectable effect
[6]; only at concentrations >10 μM (FIG. 5A)
  superoxide scavenging effect: weak superoxide scavenging effect
[6]; very high concentrations (100 μM)
  superoxide scavenging: only modest superoxide scavenging
[7]; IMA
  vascular superoxide: significantly lower
[7]; SV
  vascular superoxide: significantly lower
[8]
  vascular peroxynitrite production: no further reductions
  vascular superoxide production: no further reductions
eNOS
  citrulline production (conversion of radio-labelled arginine to citrulline): 0.20±0.03 %/g tissue
[9]
  plasma tHcy: 9.42 ± 0.46 µmol/L
[10]; IMA, placebo 1.54±0.38
  tissue 5-MTHF levels: 12.7 ± 2.58 nmol/g
[10]; SV, placebo 1.19±0.25
  tissue 5-MTHF levels: 9.35 ± 1.72 nmol/g
Saphenous veins [11]; 5-MTHF-treated group, placebo 7.72±1.31 g
  absolute pre-contractions to phenylephrine: 8.20 ± 1.26 g
Saphenous veins [11]; [13]
  vasomotor responses to acetylcholine (ACh): significantly greater
  vasomotor responses to bradykinin (BK): significantly greater
Saphenous veins [11]; SV segments ~45 min after 0.13 mg/kg i.v., placebo 19.4±3.3%
  maximal vasorelaxations to ACh: 43.2±4.5%
Saphenous veins [11]; SV segments ~45 min after 0.13 mg/kg i.v., placebo 37.1±3.7%
  maximal vasorelaxations to BK: 51.4±4.2%

## O=C1O[C@H]([C@@H](O)CO)C(O)=C1O [ascorbic acid, reference compound]
[6]; at 1 μM
  reduction of measurable superoxide: 50%
[6]; even at low concentrations (FIG. 5A)
  superoxide scavenging effect: expected scavenging effect

## O=c1[nH]c(=O)c2[nH]c(=O)[nH]c2[nH]1 [uric acid, reference compound]
[5]
  direct peroxynitrite scavenging effect: comparable
